B1: cyclic DnaA1−86: spliced cyclic fragment of amino acids 1−86 (Domain I) of E. coli DnaA produced by SICLOPPS (protein, UniProt P03004 1-86, looked up, fragment)
chain: MSLSLWQQCLARLQDELPATEFSMWIRPLQAELSDNTLALYAPNRFVLDWVRDKYLNNINGLLTSFCGADAPQLRFEVGTKPVTQT
modifications: cyclized by SICLOPPS
notes: spliced cyclic fragment of amino acids 1−86 (Domain I) of E. coli DnaA produced by SICLOPPS

Key:
[1] = tested on: recA-lacZ transcriptional fusion (SOS response); assay: SOS induction, recA-lacZ β-galactosidase; assay type: cell-based, Staphylococcus aureus; conditions: 2 μg/ml; after 210 minutes; LB, 37°C
Protocol: To test whether the cessation of DNA accumulation was accompanied by induction of the SOS response we measured the effects of both peptides on induction of the recA gene. Strain MTC157 contains a recA-lacZ transcriptional fusion in its chromosome. […] The level of induction was less that that observed for the DNA damaging agent mitomycin C (about 3-fold increase after 210 minutes). It is likely that both peptides results in malfunctioning of the replisome, and this provides the signal for SOS induction in these cells.
Figure 6 Peptide III-5 and III-6 induces the SOS response in S. aureus. S. aureus strain MTH157 (recA::lacZ) was grown exponentially in LB medium at 37°C. At an optical density OD600 = 0.1, Mitomycin C or Peptides III-5/III-6 were added to final concentrations of 2 μg/ml or 50 μg/ml, respectively. At the times indicated, samples were taken and the level of β-galactosidase determined (Materials and Methods).

E. coli = assay: Intracellular expression of cyclic DnaA1-86 in E. coli (growth, morphology); assay type: cell-based, Escherichia coli; conditions: IntC::DnaA1-86::IntN induced with 2 mM IPTG, 30°C; effect attributed mainly to the cyclic fragment
Protocol: We used the SICLOPPS technology for intracellular synthesis of cyclic peptide libraries. Cyclic peptides were chosen over their linear counterparts to limit degradation by cellular proteases. We initially tested the SICLOPPS system by inserting the coding region for amino acids 1−86 (Domain I) of DnaA from E.coli between the C- and N-terminal parts of the split intein.
Figure 2 Intracellular production of cyclic DnaA1-86. Expression of IntC::DnaA1−86::IntN was induced by addition of 2 mM IPTG to cells growing exponentially at 30°C or by plating exponential growing cells on plates containing 2 mM IPTG followed by incubation at 30C. A. Intein-DnaA precursor and splice products were visualized by Western blot using polyclonal anti-DnaA antibodies. B. Growth on LB plates containing 2 mM IPTG (top) and phase-contrast images (bottom) of expressing IntC::IntN (left) or after three hours expression of IntC::DnaA1−86::IntN (right).
Because all cells contained a mix of precursor and splice product it was not clear which species were responsible for filamentation. We therefore mutated the splice site at the IntC-DnaA1−86 (IntC-HNS-DnaA1−86 to IntC-QYS-DnaA1−86) junction to prevent splicing.

| Molecule | Increase in β-galactosidase activity (recA-lacZ) [1] | Effect of intracellular expression on E. coli growth and morphology (E. coli) |
| --- | --- | --- |
| CO[C@@]12[C@H](COC(N)=O)C3=C(C(=O)C(C)=C(N)C3=O)N1C[C@@H]1N[C@@H]12 [mitomycin C] | about 3 fold | – |
| B1 | – | inhibition of growth and cell filamentation |

From paper PMC3762901, “Cyclic Peptide Inhibitors of the β-Sliding Clamp in Staphylococcus aureus” (PLoS ONE, 2013)
